According to patent US11548888B2, “KRas G12C inhibitors” (Mirati Therapeutics, Inc., priority 2019, dated 2023):
pIC50: −log10 of the molar value.

What follows are compounds tested against T1, KRas G12C (Homo sapiens, UniProt P01116, G12C) (assay: Inhibition of KRas G12C-dependent cell growth: Phospho-ERK in NCI-H358 cells). Settings: NCI-H358 cells expressing KRas G12C; Phospho-ERK (Thr202/Tyr204) normalized to GAPDH; 3 hours compound; 4 parameter fit.
T1 construct: NCI-H358 cells (ATCC CRL-5807) express KRas G12C
Format: cell-based
Procedure, shortened: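 NCI-H358 cells (KRas G12C) exposed to compounds for 3 h, 0.5% DMSO final. Fixed cells immunostained for pERK(Thr202/Tyr204) and GAPDH with infrared secondary antibodies. pERK normalized to GAPDH, expressed as percent of DMSO control; IC50 from 4-parameter dose-response fit.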

T1 sequence (P01116 1-188 isoform P01116-2 G12C): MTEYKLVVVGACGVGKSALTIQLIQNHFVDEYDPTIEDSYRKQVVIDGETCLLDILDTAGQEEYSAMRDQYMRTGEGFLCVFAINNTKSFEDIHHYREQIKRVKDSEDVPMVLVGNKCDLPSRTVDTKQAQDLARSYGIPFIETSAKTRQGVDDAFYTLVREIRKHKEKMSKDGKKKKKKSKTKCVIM

Row | SMILES | pIC50
1 | C=C(F)C(=O)N1CCN(c2nc(OC[C@H]3[C@H](F)CCN3C)nc3c(F)c(-c4cccc5ccc(F)c(Cl)c45)ncc23)C[C@@H]1CC#N [Example 168] | 7.19
2 | C=CC(=O)N1CCN(c2ncnc3cc(-c4c(O)cccc4F)ncc23)CC1 [Example 3, 1-(4-(7-(2-fluoro-6-hydroxyphenyl)pyrido[4,3-d]pyrimidin-4-yl)piperazin-1-yl)prop-2-en-1-one] | 4.80
3 | C=CC(=O)N1CCN(c2nc(OC[C@@H]3CCCN3C)nc3c(F)c(-c4cccc5ccc(F)c(Cl)c45)ncc23)CC1 [Example 171] | 7.66
4 | C=C(F)C(=O)N1CCN(c2nc(OC[C@@H]3CCCN3C)nc3c(F)c(-c4cccc5cccc(Cl)c45)ncc23)C[C@@H]1CC#N [Example 18, 2-((S)-4-(7-(8-chloronaphthalen-1-yl)-8-fluoro-2-(((S)-1-methylpyrrolidin-2-yl)methoxy)pyrido[4,3-d]pyrimidin-4-yl)-1-(2-fluoroacryloyl)piperazin-2-yl)acetonitrile] | 7.30
5 | COC/C=C/C(=O)N1CCN(c2ncnc3c(F)c(-c4cccc5ccc(F)c(Cl)c45)ncc23)C[C@@H]1CC#N [Example 110] | 6.14
6 | CN1CC(F)(F)C[C@H]1COc1nc(N2CCN(C(=O)/C=C/CF)[C@@H](CC#N)C2)c2cnc(-c3cncc4cccc(Cl)c34)c(F)c2n1 [Example 47, 2-((S)-4-(7-(5-chloroisoquinolin-4-yl)-2-(((S)-4,4-difluoro-1-methylpyrrolidin-2-yl)methoxy)-8-fluoropyrido[4,3-d]pyrimidin-4-yl)-1-((E)-4-fluorobut-2-enoyl)piperazin-2-yl)acetonitrile] | 7.52
7 | C=C(F)C(=O)N1CCN(c2nc(OC[C@@H]3CC(F)(F)CN3C)nc3c(F)c(-c4cncc5cccc(Cl)c45)ncc23)C[C@@H]1CC#N [Example 46, 2-((S)-4-(7-(5-chloroisoquinolin-4-yl)-2-(((S)-4,4-difluoro-1-methylpyrrolidin-2-yl)methoxy)-8-fluoropyrido[4,3-d]pyrimidin-4-yl)-1-(2-fluoroacryloyl)piperazin-2-yl)acetonitrile] | 7.03
8 | C=C(F)C(=O)N1CCN(c2nc(OCc3ccn[nH]3)nc3c(F)c(-c4cccc5ccc(F)c(Cl)c45)ncc23)C[C@@H]1CC#N [Example 124] | 5.75
9 | C=C(F)C(=O)N1CCN(c2ncnc3c(F)c(-c4cc(O)cc5ccccc45)ncc23)C[C@@H]1CC#N [Example 162] | 6.23
10 | C=C(F)C(=O)N1CCN(c2nc(OCC3CCN3CC)nc3c(F)c(-c4cccc5ccc(F)c(Cl)c45)ncc23)C[C@@H]1CC#N (stereo partly shown) [Example 139] | 7.43
11 | C=C(F)C(=O)N1CCN(c2nc(OC[C@@H]3CCCN3C)nc3c(C)c(-c4cccc5cccc(C)c45)ncc23)C[C@@H]1CC#N [Example 33, 2-[(2S)-1-(2-fluoroprop-2-enoyl)-4-[8-methyl-7-(8-methyl-1-naphthyl)-2-[[(2S)-1-methylpyrrolidin-2-yl]methoxy]pyrido[4,3-d]pyrimidin-4-yl]piperazin-2-yl]acetonitrile] | 7.10
12 | C=CC(=O)N1CCN(c2ncnc3c(F)c(-c4cccc5ccc(F)c(Cl)c45)ncc23)[C@H](C)C1 [Example 133] | 5.00
13 | C=CC(=O)N1CCN(c2ncnc3c(F)c(-c4cccc5ccc(F)c(Cl)c45)ncc23)C[C@@H]1CC(F)F [Example 183] | 5.00
14 | C=CC(=O)N1CCN(c2nc(OC[C@@H]3CCCN3C)nc3c(F)c(-c4cncc5cccc(Cl)c45)ncc23)CC1 [Example 93] | 6.44
15 | C=CC(=O)N1CCC2(C1)CN(c1ncnc3c(F)c(-c4cccc5ccc(F)c(Cl)c45)ncc13)C2 [Example 138] | 5.14
16 | C=C(F)C(=O)N1CCN(c2nc(OCC34CCCN3CCC4)nc3c(F)c(-c4cccc(F)c4C(F)(F)F)ncc23)C[C@@H]1CC#N [Example 101] | 7.37
17 | Cc1cccc2cncc(-c3ncc4c(N5CCN(C(=O)/C=C/CF)[C@@H](CC#N)C5)nc(OC[C@@H]5CC(F)(F)CN5C)nc4c3F)c12 [Example 55, 2-((S)-4-(2-(((S)-4,4-difluoro-1-methylpyrrolidin-2-yl)methoxy)-8-fluoro-7-(5-methylisoquinolin-4-yl)pyrido[4,3-d]pyrimidin-4-yl)-1-((E)-4-fluorobut-2-enoyl)piperazin-2-yl)acetonitrile] | 7.05
18 | C=C(F)C(=O)N1CCN(c2nc(OC[C@@H]3C[C@@H](F)CN3C(C)C)nc3c(F)c(-c4cccc5ccc(F)c(Cl)c45)ncc23)C[C@@H]1CC#N [Example 116] | 7.51
19 | C=CC(=O)N1CCN(c2nc(OC[C@@H]3CCCN3C)nc3c(F)c(-c4cccc5ccc(F)c(Cl)c45)ncc23)CC1CF (stereo partly shown) [Example 164] | 6.82
20 | C=C(F)C(=O)N1CCN(c2nc(OCC3CN(C)CCO3)nc3c(F)c(-c4cccc5cccc(Cl)c45)ncc23)C[C@@H]1CC#N (stereo partly shown) [Example 65] | 7.44
21 | C=C(F)C(=O)N1CCN(c2nc(OC[C@@H]3CCCN3C)nc3c(F)c(-c4cccc5ccc(F)c(Cl)c45)ncc23)C[C@@H]1CC#N [Example 92] | 7.96
22 | C=C(F)C(=O)N1CCN(c2nc(OC[C@H]3CCCN3C)nc3c(F)c(-c4cccc5cccc(Cl)c45)ncc23)C[C@@H]1CC#N [Example 35, 2-[(2S)-4-[7-(8-chloro-1-naphthyl)-8-fluoro-2-[[(2R)-1-methylpyrrolidin-2-yl]methoxy]pyrido[4,3-d]pyrimidin-4-yl]-1-(2-fluoroprop-2-enoyl)piperazin-2-yl]acetonitrile] | 7.57
23 | C=C(F)C(=O)N1CCN(c2ncnc3c(F)c(-c4cccc5cccc(C)c45)ncc23)C[C@@H]1CC#N [Example 111] | 5.41
24 | C=C(F)C(=O)N1CCN(c2ncnc3c(F)c(-c4cccc5cccc(Cl)c45)ncc23)C[C@@H]1CC#N [Example 106] | 5.81
25 | C=C(F)C(=O)N1CCN(c2nc(OC[C@@H]3CCCN3C)nc3c(OCC(F)(F)F)c(-c4cccc5cccc(C)c45)ncc23)C[C@@H]1CC#N [Example 63, 2-((S)-1-(2-fluoroacryloyl)-4-(7-(8-methylnaphthalen-1-yl)-2-(((S)-1-methylpyrrolidin-2-yl)methoxy)-8-(2,2,2-trifluoroethoxy)pyrido[4,3-d]pyrimidin-4-yl)piperazin-2-yl)acetonitrile] | 5.55

Next, values leading:

Row | pIC50 | SMILES
26 | 6.26 | C=CC(=O)N1CC[C@@H]2[C@H]1CN2c1ncnc2c(F)c(-c3cccc(Cl)c3C3CC3)ncc12 [Example 277]
27 | 7.31 | C=C(F)C(=O)N1CCN(c2nc(OC[C@@H]3CC(F)(F)CN3C)nc3c(F)c(-c4cccc5ccc(F)c(Cl)c45)ncc23)C[C@@H]1CC#N [Example 210]
28 | 6.64 | C=CC(=O)N1CCN(c2nc(C(F)F)nc3c(F)c(-c4cccc5ccc(F)c(Cl)c45)ncc23)C[C@@H]1CC#N [Example 237]
29 | 5.00 | C=CC(=O)N1C[C@H]2[C@@H]1CCN2c1ncnc2c(F)c(-c3cccc4ccc(F)c(Cl)c34)ncc12 [Example 232]
30 | 5.00 | C=CC(=O)N1CCN(c2ncnc3c(F)c(-c4c[n+]([O-])cc5ccccc45)ncc23)CC1 [Example 301, 4-(4-(4-acryloylpiperazin-1-yl)-8-fluoropyrido[4,3-d]pyrimidin-7-yl)isoquinoline 2-oxide]
31 | 5.00 | C=CC(=O)N1CCN(c2ncnc3c(F)c(-c4cccc5ccc(F)c(Cl)c45)ncc23)CC12CC2 [Example 234]
32 | 5.83 | C=CC(=O)N1CC[C@@H]2[C@H]1CN2c1nc(OC2CC2)nc2c(F)c(-c3cccc4ccc(F)c(Cl)c34)ncc12 [Example 272]
33 | 6.78 | C=CC(=O)N1CCN(c2ncnc3c(F)c(-c4cccc5ccc(F)cc45)ncc23)C[C@@H]1CC#N [Example 197]
34 | 8.40 | C=C(F)C(=O)N1CCN(c2nc(OCC3(C)C(OC)CN3C)nc3c(F)c(-c4cccc5ccc(F)c(Cl)c45)ncc23)C[C@@H]1CC#N (stereo partly shown) [Example 208]
35 | 5.00 | C=C(F)C(=O)N1CCN(c2nc(O[C@@H]3CO[C@H]4[C@@H]3OC[C@H]4O)nc3c(F)c(-c4cccc5ccc(F)c(Cl)c45)ncc23)C[C@@H]1CC#N [Example 240]
36 | 5.77 | C=CC(=O)N1CCN(c2nc(C)nc3c(F)c(-c4cc(O)cc5ccccc45)ncc23)CC1 [Example 206]
37 | 5.39 | C#Cc1cccc2cccc(-c3ncc4c(N5CC[C@@H]6[C@H]5CN6C(=O)C=C)ncnc4c3F)c12 [Example 245, 1-((1R,5R)-2-(7-(8-ethynylnaphthalen-1-yl)-8-fluoropyrido[4,3-d]pyrimidin-4-yl)-2,6-diazabicyclo[3.2.0]heptan-6-yl)prop-2-en-1-one]
38 | 5.00 | C=CC(=O)N1CCN(c2ncnc3c(F)c(-c4ccccc4F)ncc23)[C@@H](C)C1 [Example 186]
39 | 7.19 | C#Cc1cccc2cc(O)cc(-c3ncc4c(N5C[C@@H]6[C@H]5CCN6C(=O)C=C)nc(OCC56CCCN5CCC6)nc4c3F)c12 [Example 293, 1-((1R, 5R)-6-(7-(8-ethynyl-3-hydroxynaphthalen-1-yl)-8-fluoro-2-((tetrahydro-1H-pyrrolizin-7a(5H)-yl)methoxy)pyrido[4,3-d]pyrimidin-4-yl)-2,6-diazabicyclo[3.2.0]heptan-2-yl)prop-2-en-1-one]
40 | 7.96 | C=C(F)C(=O)N1CCN(c2nc(OCC3CCC4(CO)CCCN34)nc3c(F)c(-c4cccc5ccc(F)c(Cl)c45)ncc23)C[C@@H]1CC#N (stereo partly drawn) [Example 217, 2-((2S)-4-(7-(8-chloro-7-fluoronaphthalen-1-yl)-8-fluoro-2-((7a-(hydroxymethyl)hexahydro-1H-pyrrolizin-3-yl)methoxy)pyrido[4,3-d]pyrimidin-4-yl)-1-(2-fluoroacryloyl)piperazin-2-yl)acetonitrile]
41 | 5.00 | C=CC(=O)N1CCN(c2ncnc3c(F)c(-c4cc(C#N)cc5ccccc45)ncc23)CC1 [Example 256]
42 | 6.95 | C=CC(=O)N1CCN(c2ncnc3c(F)c(-c4cccc(Cl)c4C4CC4)ncc23)C[C@@H]1CC#N [Example 241]
43 | 5.00 | C=CC(=O)N1CC[C@@H]2[C@H]1CN2c1nc(N(C)CC)nc2c(F)c(-c3cccc4ccc(F)c(Cl)c34)ncc12 [Example 274]
